Experiments:
[1] = tested on: IL-6; experiment: IL-6 inhibition in LPS-stimulated human peripheral blood mononuclear cells (HTRF); conditions: Homo sapiens, PBMC; for EC50: 22 h; for inhibition at 10 µM: read-out: percentage in parentheses after EC50 >10
[2] = tested on: secreted cytokines TNFα, IL-6 and KC-GRO; experiment: Secreted cytokines in Lipopolysaccharide-stimulated BV-2 cells (Table 9 does not say which cytokine); type: cell-based, mouse; conditions: Mus musculus, BV-2, 5 h; read-out: EC50
[3] = target: GSK3β kinase (Homo sapiens, UniProt P49841); experiment: GSK3β kinase activity (Ser/Thr 09 peptide Z-lyte FRET assay); type: biochemical; conditions: recombinant kinase, 46 μM ATP, one hour at room temperature; read-out: EC50
[4] = tested on: α-smooth muscle actin (aSMA) positive LL29 cells; experiment: Inhibition of the fibrotic process: αSMA staining in TGF-β1 treated LL29 fibroblasts from IPF patients; conditions: Homo sapiens, Fibroblast; for EC50: 96 h; for inhibition at 10 µM: read-out: percentage in parentheses after EC50 >10
[5] = tested on: Wnt-responsive Sp5-Luc reporter in SW480 colon carcinoma cells; experiment: Screening assay for Wnt activity (Sp5-Luc reporter gene assay); conditions: Homo sapiens; for EC50: SW480; for inhibition at 10 µM: SW480, read-out: percent inhibition at 10 μM
[6] = target: DYRK1A kinase (Homo sapiens, UniProt Q13627); experiment: DYRK1A kinase activity (Ser/Thr 18 peptide Z-lyte FRET assay); type: biochemical; conditions: recombinant DYRK1A, 30 μM ATP, one hour at room temperature;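 also: kinase activity read as coumarin/fluorescein emission ratio after development step, with unphosphorylated and phosphorylated peptide forms setting 0% and 100% controls, values from dose-response curves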
Description: Representative compounds were screened using the assay procedure for DYRK1A kinase activity as described below.
Each compound was dissolved in DMSO as a 10 mM stock and used to prepare compound source plates.
This is a non-radioactive assay using fluorescence resonance energy transfer (FRET) between coumarin and fluorescein to detect kinase activity which is represented as a ratio of coumarin emission/fluorescein emission.
The mixture was allowed to incubate with the representative compounds for one hour at room temperature. All reactions were performed in duplicate. Unphosphorylated (“0% Control”) and phosphorylated (“100% control”) forms of Ser/Thr 18 served as control reactions. Additionally, an 11-point dose-response curve of Staurosporine (1 uM top) was run to serve as a positive compound control.
After incubation, Development Reagent A was diluted in Development Buffer then added to the reaction and allowed to further incubate for one hour at room temperature.
Dose-response curves were generated and inhibitory concentration (IC50) values were calculated using non-linear regression curve fit in the Dotmatics' Studies Software (Bishops Stortford, UK).

[7] = tested on: SW480 colon carcinoma cells; experiment: Cell viability assay (CellTiter-Glo); conditions: Homo sapiens; for EC50: SW480, 96 h; for inhibition at 10 µM: SW480, read-out: percent inhibition at 10 μM
Description: Representative compounds were screened using the assay procedure to assess the effect on cell viability as described below.
SW480 colon carcinoma cells were transduced with a lentiviral vector expressing luciferase with a human Sp5 promoter consisting of a sequence of eight TCF/LEF binding sites. […] These stably transduced SW480 cells were expanded in cell culture and used for all further screening activities. Each compound was dissolved in DMSO as a 10 mM stock and used to prepare compound source plates.
For the Cell Viability Assays, the cells were plated at 2,000 cells/well in 384-well plates with a DMEM medium containing 1% fetal bovine serum, and 1% Penicillin-Streptomycin and incubated for four days hours at 37° C. and 5% CO2. Eight replicates of DMSO-treated cells served as controls and cells treated with compound were performed in duplicate.
After incubation, 10 μL of CellTiter-Glo (Promega) was added to each well allowed to incubate for approximately 12 minutes. This reagent “results in cell lysis and generation of a luminescent signal proportional to the amount of ATP present. The amount of ATP is directly proportional to the number of cells present in culture, in agreement with previous reports. The CellTiter-Glo Assay generates a “glow-type” luminescent signal, produced by the luciferase reaction (Promega.com)”.
Dose-response curves were generated and EC50 concentration values were calculated using non-linear regression curve fit in the GraphPad Prism (San Diego, Calif.) or Dotmatics' Studies Software (Bishops Stortford, UK).

[8] = tested on: Tau phosphorylation at Ser396 (pSer396); experiment: Tau phosphorylation at Ser396 (pSer396) in SH-SY5Y cells, ELISA / western blot; type: cell-based, human; conditions: Homo sapiens; SH-SY5Y cells, overnight (16-18 h); read-out: pSer396 Tau EC50;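 also: decrease in pSer396 Tau measured in lysates of treated cells by colorimetric ELISA or chemiluminescent western blot, same pSer396 antibody for both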
Description: Two days before treatment, cells were seeded onto 96 well plates at 5×10^4 cells/well.
The above synthesized compounds were screened using the cell assay procedure to assess decrease Tau phosphorylation at Ser396 (pSer396) described below.
Cells were lysed with RIPA buffer complemented with phosphatase and protease inhibitors then lysates were spun down at 12,000 g for 10 min to remove any cellular debris.

Chain of GSK3β kinase (P49841 whole entry): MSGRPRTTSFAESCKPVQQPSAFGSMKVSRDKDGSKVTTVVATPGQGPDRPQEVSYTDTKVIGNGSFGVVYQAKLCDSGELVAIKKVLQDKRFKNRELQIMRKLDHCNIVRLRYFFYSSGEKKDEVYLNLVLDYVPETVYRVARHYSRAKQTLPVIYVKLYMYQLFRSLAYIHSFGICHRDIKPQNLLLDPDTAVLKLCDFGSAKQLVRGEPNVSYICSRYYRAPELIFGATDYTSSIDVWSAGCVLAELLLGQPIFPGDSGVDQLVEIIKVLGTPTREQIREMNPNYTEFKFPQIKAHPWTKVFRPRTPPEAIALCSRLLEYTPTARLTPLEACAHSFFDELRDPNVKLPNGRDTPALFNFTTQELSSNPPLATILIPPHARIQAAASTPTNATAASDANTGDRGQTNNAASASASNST

SMILES | EC50 [1] [nM] | inhibition at 10 µM [1] [%] | EC50 [2] [nM] | EC50 [3] [nM] | EC50 [4] [nM] | EC50 [5] [nM] | inhibition at 10 µM [5] [%] | EC50 [6] [nM] | EC50 [7] [nM] | inhibition at 10 µM [7] [%] | EC50 [8] [nM] | inhibition at 10 µM [4] [%]
CN(C)[C@H]1CC[C@H](C(=O)Nc2ncc3ccc(-c4cncs4)cc3n2)CC1 [Compound 1518, trans-4-(Dimethylamino)-N-(7-(thiazol-5-yl)quinazolin-2-yl)cyclohexane-1-carboxamide] | > 10000 | 30.1 | 1080 | 253 | 2610 | > 10000 | 24.8 | 14 | > 10000 | 25.3 | 5400 | 
Cn1cncc1-c1ccc2cnc(NC(=O)c3cccc(CN4CCCC4)c3)cc2n1 [Compound 450, N-(2-(1-Methyl-1H-imidazol-5-yl)-1,6-naphthyridin-7-yl)-3-(pyrrolidin-1-ylmethyl)benzamide] | 3510 |  | 3000 | 350 | 517 | 279 |  | 1 | 409 |  | 3760 | 
CN(C)[C@H]1CC[C@H](C(=O)Nc2cc3cc(-c4cncs4)cnc3cn2)CC1 [Compound 4618] | > 10000 | 6.3 | 108 | 3820 | 4810 | > 10000 | 14.6 | 18 | > 10000 | 36.1 | 1050 | 
Cn1cc(-c2ccc3cnc(NC(=O)C4CCNCC4)nc3c2)cn1 [Compound 918, N-(7-(1-methyl-1H-pyrazol-4-yl)quinazolin-2-yl)piperidine-4-carboxamide] | > 10000 | 14.6 | > 10000 | 236 | > 10000 | > 10000 | 5 | 62 | > 10000 | 10.2 | > 10000 | 31.2
Cn1cc(-c2ccc3cnc(NC(=O)CC4CNCCO4)cc3n2)cn1 (stereo not drawn) [Compound 86, N-(2-(1-Methyl-1H-pyrazol-4-yl)-1,6-naphthyridin-7-yl)-2-(morpholin-2-yl)acetamide] | 1020 |  | 201 | 68 | 1890 | 1890 |  | 12 | 3610 |  | 1000 | 
Cn1cc(-c2ccc3cnc(NC(=O)[C@H]4CCCN4)cc3n2)cn1 [Compound 62, (R)—N-(2-(1-Methyl-1H-pyrazol-4-yl)-1,6-naphthyridin-7-yl)pyrrolidine-2-carboxamide] | 4830 |  | 557 | 9 | > 10000 | > 10000 | 43.1 | 56 | > 10000 | 38.3 | 699 | 8.3
Cn1cc(-c2cc3cc(NC(=O)C4CC4)ncc3cn2)cn1 [Compound 3629, N-(6-(1-Methyl-1H-pyrazol-4-yl)-2,7-naphthyridin-3-yl) cyclopropanecarboxamide] | 2760 |  | 5700 | 2 | 97 | 396 |  | 7 | 951 |  | 21 | 
Cn1cc(-c2ccc3cnc(NC(=O)CCc4ccccc4)cc3n2)cn1 [Compound 194, N-(2-(1-Methyl-1H-pyrazol-4-yl)-1,6-naphthyridin-7-yl)-3-phenylpropanamide] | 8940 |  | 819 | 17 | 935 | 596 |  | 23 | 7620 |  | 3000 | 
Cn1cncc1-c1cc2cc(NC(=O)C3CCC(F)(F)CC3)ncc2cn1 [Compound 4027, 4,4-Difluoro-N-(6-(1-methyl-1H-imidazol-5-yl)-2,7-naphthyridin-3-yl) cyclohexane-1-carboxamide] | > 10000 | 4 | ≥ 10000 | 72 | > 10000 | > 10000 | 17.5 | 21 | > 10000 | 26.3 | 219 | 33.9
Cn1cc(-c2ccc3cnc(NC(=O)C4CCN(Cc5ncccn5)CC4)nc3c2)cn1 [Compound 1007, N-(7-(1-methyl-1H-pyrazol-4-yl)quinazolin-2-yl)-1-(pyrimidin-2-ylmethyl)piperidine-4-carboxamide] | > 10000 | 2.4 | 1800 | 349 | > 10000 | > 10000 | 14.6 | 106 | > 10000 | 17.9 | > 10000 | 39.7
Cn1cc(-c2ccc3cnc(NC(=O)CN4CCOCC4)nc3c2)cn1 [Compound 985, N-(7-(1-Methyl-1H-pyrazol-4-yl)quinazolin-2-yl)-2-morpholinoacetamide] | > 10000 | 3.2 | > 10000 | 35 | > 10000 | > 10000 | 5.5 | 126 | > 10000 | 9.6 | 5400 | 51.7
Cc1cn2c(n1)CN(C(=O)Nc1ncc3ccc(-c4cnc(C)o4)cc3n1)CC2 [Compound 1491, 2-Methyl-N-(7-(2-methyloxazol-5-yl)quinazolin-2-yl)-5,6-dihydroimidazo [1,2-a]pyrazine-7(8H)-carboxamide] | > 10000 | 2.6 | 3900 | 166 | > 10000 | > 10000 | 25.2 | 39 | 8860 |  | 3700 | 6.1
Cc1ncc(-c2ccc3cnc(NC(=O)C(C)N4CCCC4)cc3n2)n1C (stereo not drawn) [Compound 4544, N-(2-(1,2-Dimethyl-1H-imidazol-5-yl)-1,6-naphthyridin-7-yl)-2-(pyrrolidin-1-yl)propanamide] | 7770 |  | 353 | 18 | 1090 | 59 |  | 33 | 5610 |  | 76 | 
Cn1cc(-c2ccc3cnc(NC(=O)CCc4ccccc4)nc3c2)cn1 [Compound 1101, N-(7-(1-Methyl-1H-pyrazol-4-yl)quinazolin-2-yl)-3-phenylpropanamide] | > 10000 | 10.6 | 3100 | 55 | > 10000 | 2280 |  | 20 | 4480 |  | 9500 | 12.7
Cn1cc(-c2ccc3cnc(NC(=O)[C@H]4CC[C@H](N)CC4)cc3n2)cn1 [Compound 41, trans-4-amino-N-(2-(1-methyl-1H-pyrazol-4-yl)-1,6-naphthyridin-7-yl)cyclohexane-1-carboxamide] | 2770 |  | 408 | 429 | 663 | 1310 |  | 10 | > 10000 | 31.8 | > 10000 | 
Cc1ncc(-c2ccc3cnc(NC(=O)C4CCN(C)CC4)cc3n2)s1 [Compound 640, 1-Methyl-N-(2-(2-methylthiazol-5-yl)-1,6-naphthyridin-7-yl)piperidine-4-carboxamide] | 7340 |  | 504 | 401 | 671 | > 10000 | 42.9 | 38 | > 10000 | 40.4 | 877 | 
O=C(Nc1cc2nc(-c3cncs3)ccc2cn1)[C@H]1CC[C@H](CN2CC(F)C2)CC1 [Compound 613, trans-4-((3-Fluoroazetidin-1-yl)methyl)-N-(2-(thiazol-5-yl)-1,6-naphthyridin-7-yl)cyclohexane-1-carboxamide] | 1100 |  | 106 | 219 | 650 | 8810 |  | 3 | 3600 |  | 157 | 
Cc1ncc(C(=O)Nc2cc3nc(-c4cnc(C)n4C)ccc3cn2)s1 [Compound 447, N-(2-(1,2-Dimethyl-1H-imidazol-5-yl)-1,6-naphthyridin-7-yl)-2-methylthiazole-5-carboxamide] | 4250 |  | 83 | 48 | 517 | 107 |  | 1 | 165 |  | 562 | 
CN1CCN(Cc2cccc(C(=O)Nc3cc4cc(-c5cnn(C)c5)ncc4cn3)c2)CC1 [Compound 3799, N-(6-(1-Methyl-1H-pyrazol-4-yl)-2,7-naphthyridin-3-yl)-3-((4-methylpiperazin-1-yl)methyl)benzamide] | > 10000 | 5.3 | 79 | 243 | 2580 | 2120 |  | 12 | 3660 |  | 3640 | 

— US10703748B2, “Diazanaphthalen-3-yl carboxamides and preparation and use thereof” (Samumed, LLC, priority 2017, dated 2020)
